{"source": "paper PMC9663578", "about": "“A fluorogenic probe for predicting treatment response in non-small cell lung cancer with EGFR-activating mutations” (Nature Communications, 2022)", "key": {"A549 cells": {"system": "A549 cells", "test": "FACS assay in cultured cells", "conditions": "for HX103 dose-dependent signal (Supplementary Fig. 18): 20 µM = 100", "experimental": "(§1) Briefly, the cultured cells were seeded on the petri dish and counted using Count star BioMed automated cell counter. Around 10^6 live-cells were collected and were pelleted (2000×g, 3 min), followed by washing with PBS (2x). Cells were then resuspended in PBS buffer containing 0.1% BSA (1 × 10^6 cells/mL). […] The cell suspension was resuspended in PBS and analyzed with a FACSVerse^TM flow cytometer (BD Biosciences, LSRFortessa). About 10,000 events per tube were analyzed and the mean fluorescence intensity was detected and analyzed.\n(§2) For the FACS assay with EGFR antibody, around 10^6 live-cells were collected and washed with PBS (2x). The cells were fixed by 400 µL 4% paraformaldehyde for 15 min at room temperature, followed by permeabilization with 0.1% Triton X-100 for 10 min and blocking with 5% BSA for 30 min. […] The cells were then washed with 0.5% BSA/PBS (3x) and resuspended in 400 µL of 0.1% BSA/PBS. […] The resuspended cell suspension was then analyzed on a FACSVerseTM flow cytometer (BD Biosciences, LSRFortessa). Nonspecific fluorescence binding was omitted by Rabbit mAb IgG isotype control (#3900, CST, 1:100) and the corresponding mean fluorescence was subtracted from the signal measured with each primary antibody. About 10,000 events per tube were analyzed and the mean fluorescence intensity was detected and analyzed.\n(§3) Subsequently, the treated cells were incubated for 30 min at 37 °C, followed by washing with PBS buffer three times. […] Finally, the co-stained cells were washed with 0.5% BSA/PBS for three times and resuspended in 400 µL of 0.1% BSA/PBS. The obtained cell suspension was ready for analysis. Nonspecific fluorescence binding was omitted by Rabbit mAb IgG isotype control (#3900, CST, 1:100) as described above.\n(§4) Nonspecific fluorescence binding was omitted by Rabbit mAb IgG isotype control (#3900, CST, 1:100). […] After incubation for another 30 min at room temperature, the co-stained cells were washed with 0.5% BSA/PBS for three times and resuspended in 400 µL of 0.1% BSA/PBS. The obtained cell suspension was ready for analysis. Nonspecific fluorescence binding was omitted by Rabbit mAb IgG isotype control (#3900, CST, 1:100) as described above.\n(§5) The cells were seeded on the petri dish and cultured at the normal condition with 10% FBS, and that was changed to serum-free condition for 24 h when the cells proliferated at ~80% confluence. […] Nonspecific fluorescence binding was omitted by Rabbit mAb IgG isotype control (#3900, CST, 1:100) as described above."}, "HCC827 cells": {"system": "HCC827 cells", "test": "FACS assay in cultured cells", "conditions": "for HX103 dose-dependent signal (Supplementary Fig. 18): 20 µM = 100", "experimental": "as §1, §2, §3, §4, §5"}, "H1975 cells [1]": {"system": "H1975 cells", "test": "MTT cytotoxicity assay", "assay_type": "cell-based", "conditions": "Homo sapiens, NCI-H1975; EGFR L858R/T790M, 48 h, n=3"}, "H1975 cells [2]": {"system": "H1975 cells", "test": "FACS assay in cultured cells", "conditions": "for HX103 dose-dependent signal (Supplementary Fig. 18): 20 µM = 100", "experimental": "as §1, §2, §3, §4, §5"}, "[3]": {"system": "tumor tissues from NSCLC patients", "test": "HX103-based multicolor FACS, surgical tumor tissues", "assay_type": "cell-based, human", "experimental": "The obtained tissues were dissociated into single-cell suspension using a standard protocol of primary cell isolation. Briefly, the obtained fresh tissue was placed in a petri dish on ice and cut into small pieces of ~2 mm. […] Subsequently, the digested sample was filtered through 70-μm and 40-μm cell strainer (Falcon), respectively, followed by the wash with serum-free medium (DMEM). The tumor cell pellet was then obtained by centrifugation at 500×g for 5 min at 4 °C for the removal of the supernatant. Then, the cell pellet was resuspended in serum-free medium and 1 mL of red blood cell lysis buffer was added and incubated for 5 min to remove the erythrocyte. The cells were pelleted and resuspended in a serum-free medium and ready for FACS analysis[67],[68]. […]\nGibco), and digested for 30 min at 37 ℃ under gentle agitation. […] The cells were pelleted and resuspended in serum-free medium and ready for FACS analysis 2, 3. […]\nThe co-staining was performed for 30 min at 37 °C, then the cells were pelleted (2000 g, 3 min) and washed with PBS buffer and PBS (containing 1% BSA) (2 times). The cells were pelleted (2000 g, 3 min) and resuspended in PBS (containing 1% BSA) and ready for analysis with a FACSVerseTM flow cytometer (BD Biosciences, LSRFortessa) (the lasers used for this study: 405 nm, 488 nm and 647 nm). […]"}, "Jurkat cells": {"system": "Jurkat cells", "test": "FACS assay in cultured cells", "experimental": "The FACS assay was performed according to the reported literatures[67],[68]. Briefly, the cultured cells were seeded on the petri dish and counted using Count star BioMed automated cell counter. Around 10^6 live-cells were collected and were pelleted (2000×g, 3 min), followed by washing with PBS (2x). Cells were then resuspended in PBS buffer containing 0.1% BSA (1 × 10^6 cells/mL). […] The cell suspension was resuspended in PBS and analyzed with a FACSVerse^TM flow cytometer (BD Biosciences, LSRFortessa). About 10,000 events per tube were analyzed and the mean fluorescence intensity was detected and analyzed.\nas §2, §3, §4, §5"}, "EGFR wild-type": {"target": "T1, EGFR wild-type (Homo sapiens, UniProt P00533)", "T1 construct": "Recombinant human EGFR (amino acids 668–1210, #PR7295B); purchased Thermo Fisher PR7295B", "T1 sequence (P00533 668-1210)": "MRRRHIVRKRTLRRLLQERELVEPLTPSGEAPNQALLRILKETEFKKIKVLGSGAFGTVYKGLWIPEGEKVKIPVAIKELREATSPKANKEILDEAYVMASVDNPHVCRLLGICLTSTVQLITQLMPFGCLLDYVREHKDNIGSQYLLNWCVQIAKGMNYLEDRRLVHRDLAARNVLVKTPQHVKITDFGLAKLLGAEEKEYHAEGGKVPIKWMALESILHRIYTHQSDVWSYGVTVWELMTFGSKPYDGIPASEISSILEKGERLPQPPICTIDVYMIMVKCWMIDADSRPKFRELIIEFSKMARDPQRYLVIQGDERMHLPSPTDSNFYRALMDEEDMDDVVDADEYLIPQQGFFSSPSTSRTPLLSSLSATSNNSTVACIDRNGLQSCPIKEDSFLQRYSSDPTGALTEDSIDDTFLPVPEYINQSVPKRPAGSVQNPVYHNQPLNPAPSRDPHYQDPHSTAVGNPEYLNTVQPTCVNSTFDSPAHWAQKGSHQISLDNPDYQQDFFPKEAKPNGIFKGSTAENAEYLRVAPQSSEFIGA", "test": "Kinase inhibition assay (fluorescent mobility-shift assay)", "assay_type": "biochemical", "design": "Kinase activity: unit not given here", "conditions": "for Kinase activity: EGFR WT, n=1-3"}, "[4]": {"conditions": "HX103 5 µM, 30 min, replicates n=1-3"}}, "note": "Values joined by “and” are separate entries in the source; they are usually repeats but may differ in a detail not shown here. Equal entries are not always repeated."}
{"smiles": "COc1cc2c(Nc3ccc(F)c(Cl)c3)ncnc2cc1OCCCNc1ccc(S(=O)(=O)N(C)C)c2nonc12", "note": "[HX103]", "values": [{"measurement": "EGFR(+) HX103 (+) (%) AVE", "setting": "A549 cells; A549, AVE of n=3", "value": 13.21, "unit": "%"}, {"measurement": "HX103 (+) (%) AVE", "setting": "A549 cells; A549, AVE of n=3", "value": 14.4253, "unit": "%"}, {"measurement": "HX103 dose-dependent signal (Supplementary Fig. 18)", "setting": "A549 cells; A549, HX103 0.04 µM", "value": "1.227 and 1.64 and 1.474"}, {"measurement": "HX103 dose-dependent signal (Supplementary Fig. 18)", "setting": "A549 cells; A549, HX103 0.37 µM", "value": "16.7962 and 13.0237 and 14.9399"}, {"measurement": "HX103 dose-dependent signal (Supplementary Fig. 18)", "setting": "A549 cells; A549, HX103 1.1 µM", "value": "32.8472 and 24.022 and 28.4446"}, {"measurement": "HX103 dose-dependent signal (Supplementary Fig. 18)", "setting": "A549 cells; A549, HX103 3.3 µM", "value": "43.6352 and 41.2034 and 42.4293"}, {"measurement": "HX103 dose-dependent signal (Supplementary Fig. 18)", "setting": "A549 cells; A549, HX103 10 µM", "value": "71.5104 and 62.9379 and 67.2341"}, {"measurement": "HX103 dose-dependent signal (Supplementary Fig. 18)", "setting": "A549 cells; A549, HX103 15 µM", "value": "96.2656 and 89.3616 and 85.8336"}, {"measurement": "HX103 dose-dependent signal (Supplementary Fig. 18)", "setting": "A549 cells; A549, HX103 20 µM", "value": 100}, {"measurement": "HX103 signal (Supplementary Fig. 7)", "setting": "A549 cells; A549, HX103 alone or with Gefitinib, replicates n=1-3", "value": "102.046 and 98.7743 and 99.18"}, {"measurement": "EGFR(+) HX103 (+) (%)", "setting": "A549 cells; A549, replicates n=1-3", "value": "7.43% and 15.21% and 16.99%"}, {"measurement": "HX103(+) (%)", "setting": "A549 cells; A549, replicates n=1-3", "value": "14.626% and 17.32% and 11.33%"}, {"measurement": "normalized MFI of HX103 labeling", "setting": "A549 cells; [4]", "value": "51.9313% and 58.1545% and 55.0429%"}, {"measurement": "EGFR(+) HX103 (+) (%)", "setting": "A549 cells; HX103 5 µM, replicates n=1-3", "value": "15.21% and 16.99% and 7.43%"}, {"measurement": "EGFR(+) HX103 (+) (%) AVE", "setting": "HCC827 cells; HCC827, AVE of n=3", "value": 80.23, "unit": "%"}, {"measurement": "HX103 (+) (%) AVE", "setting": "HCC827 cells; HCC827, AVE of n=3", "value": 86.6667, "unit": "%"}, {"measurement": "HX103 dose-dependent signal (Supplementary Fig. 18)", "setting": "HCC827 cells; HCC827, HX103 0.01 µM", "value": "0.7326 and 0.7683 and 0.9746"}, {"measurement": "HX103 dose-dependent signal (Supplementary Fig. 18)", "setting": "HCC827 cells; HCC827, HX103 0.04 µM", "value": "2.846 and 2.806 and 2.831"}, {"measurement": "HX103 dose-dependent signal (Supplementary Fig. 18)", "setting": "HCC827 cells; HCC827, HX103 0.37 µM", "value": "22.4134 and 22.8581 and 22.7877"}, {"measurement": "HX103 dose-dependent signal (Supplementary Fig. 18)", "setting": "HCC827 cells; HCC827, HX103 1.1 µM", "value": "38.2787 and 42.4364 and 41.8565"}, {"measurement": "HX103 dose-dependent signal (Supplementary Fig. 18)", "setting": "HCC827 cells; HCC827, HX103 3.3 µM", "value": "54.3583 and 44.1499 and 45.6521"}, {"measurement": "HX103 dose-dependent signal (Supplementary Fig. 18)", "setting": "HCC827 cells; HCC827, HX103 10 µM", "value": "74.1678 and 84.8664 and 79.5169"}, {"measurement": "HX103 dose-dependent signal (Supplementary Fig. 18)", "setting": "HCC827 cells; HCC827, HX103 15 µM", "value": "88.3889 and 68.5257 and 78.4542"}, {"measurement": "HX103 dose-dependent signal (Supplementary Fig. 18)", "setting": "HCC827 cells; HCC827, HX103 20 µM", "value": 100}, {"measurement": "HX103 signal (Supplementary Fig. 7)", "setting": "HCC827 cells; HCC827, HX103 alone or with Gefitinib, replicates n=1-3", "value": "106.679 and 93.3209 and 100"}, {"measurement": "EGFR(+) HX103 (+) (%)", "setting": "HCC827 cells; HCC827, replicates n=1-3", "value": "76.09% and 81.73% and 82.87%"}, {"measurement": "HX103(+) (%)", "setting": "HCC827 cells; HCC827, replicates n=1-3", "value": "99.17% and 83.21% and 77.62%"}, {"measurement": "normalized MFI of HX103 labeling", "setting": "HCC827 cells; [4]", "value": "92.4893% and 105.794% and 84.1202%"}, {"measurement": "EGFR(+) HX103 (+) (%)", "setting": "HCC827 cells; HX103 5 µM, replicates n=1-3", "value": "81.73% and 82.87% and 76.09%"}, {"measurement": "IC50", "setting": "H1975 cells [1]", "value": 45, "unit": "µM"}, {"measurement": "EGFR(+) HX103 (+) (%) AVE", "setting": "H1975 cells [2]; H1975, AVE of n=3", "value": 82.37, "unit": "%"}, {"measurement": "HX103 (+) (%) AVE", "setting": "H1975 cells [2]; H1975, AVE of n=3", "value": 87.9667, "unit": "%"}, {"measurement": "HX103 dose-dependent signal (Supplementary Fig. 18)", "setting": "H1975 cells [2]; H1975, HX103 0.04 µM", "value": "2.425 and 4.214 and 3.319"}, {"measurement": "HX103 dose-dependent signal (Supplementary Fig. 18)", "setting": "H1975 cells [2]; H1975, HX103 0.37 µM", "value": "11.9338 and 12.3486 and 12.1512"}, {"measurement": "HX103 dose-dependent signal (Supplementary Fig. 18)", "setting": "H1975 cells [2]; H1975, HX103 1.1 µM", "value": "36.5652 and 42.2419 and 39.4086"}, {"measurement": "HX103 dose-dependent signal (Supplementary Fig. 18)", "setting": "H1975 cells [2]; H1975, HX103 3.3 µM", "value": "51.8347 and 43.4647 and 47.0457"}, {"measurement": "HX103 dose-dependent signal (Supplementary Fig. 18)", "setting": "H1975 cells [2]; H1975, HX103 10 µM", "value": "81.1792 and 74.1549 and 77.687"}, {"measurement": "HX103 dose-dependent signal (Supplementary Fig. 18)", "setting": "H1975 cells [2]; H1975, HX103 15 µM", "value": "93.412 and 78.0323 and 85.7212"}, {"measurement": "HX103 dose-dependent signal (Supplementary Fig. 18)", "setting": "H1975 cells [2]; H1975, HX103 20 µM", "value": 100}, {"measurement": "HX103 signal (Supplementary Fig. 7)", "setting": "H1975 cells [2]; H1975, HX103 alone or with Gefitinib, replicates n=1-3", "value": "118.617 and 81.9826 and 99.4"}, {"measurement": "EGFR(+) HX103 (+) (%)", "setting": "H1975 cells [2]; H1975, replicates n=1-3", "value": "74.3% and 85.37% and 87.44%"}, {"measurement": "HX103(+) (%)", "setting": "H1975 cells [2]; H1975, replicates n=1-3", "value": "98.62% and 87.52% and 77.76%"}, {"measurement": "normalized MFI of HX103 labeling", "setting": "H1975 cells [2]; [4]", "value": "81.9742% and 118.026% and 100%"}, {"measurement": "EGFR(+) HX103 (+) (%)", "setting": "H1975 cells [2]; HX103 5 µM, replicates n=1-3", "value": "85.37% and 87.44% and 74.3%"}, {"measurement": "mean % value of HX103(+), EGFR 19del tumors", "setting": "[3]; n = 4", "value": "40.6±8.2", "unit": "%"}, {"measurement": "mean % value of HX103(+), EGFR L858R tumors", "setting": "[3]; n = 8", "value": "65.3±10.9", "unit": "%"}, {"measurement": "normalized MFI of HX103 labeling", "setting": "Jurkat cells; [4]", "value": "17.5966% and 26.6094% and 22.103%"}, {"measurement": "EGFR(+) HX103 (+) (%)", "setting": "Jurkat cells; HX103 5 µM, replicates n=1-3", "value": "0.1% and 0.22% and -0.02%"}, {"measurement": "EGFR(+) HX103 (+) (%) AVE", "setting": "Jurkat cells; Jurkat, AVE of n=3", "value": 0.1, "unit": "%"}, {"measurement": "HX103 (+) (%) AVE", "setting": "Jurkat cells; Jurkat, AVE of n=3", "value": 0.05667, "unit": "%"}, {"measurement": "EGFR(+) HX103 (+) (%)", "setting": "Jurkat cells; Jurkat, replicates n=1-3", "value": "-0.02% and 0.1% and 0.22%"}, {"measurement": "HX103(+) (%)", "setting": "Jurkat cells; Jurkat, replicates n=1-3", "value": "0.07% and 0.01% and 0.09%"}, {"measurement": "Kinase activity", "setting": "EGFR wild-type; Log [HX103 (M)] -7", "value": "3.448 and 5.933 and 4.591"}, {"measurement": "Kinase activity", "setting": "EGFR wild-type; Log [HX103 (M)] -7.5", "value": "17.07 and 12.53 and 15.46"}, {"measurement": "Kinase activity", "setting": "EGFR wild-type; Log [HX103 (M)] -8", "value": "28.39 and 28.36 and 28.22"}, {"measurement": "Kinase activity", "setting": "EGFR wild-type; Log [HX103 (M)] -8.5", "value": "52.62 and 55.81 and 54.21"}, {"measurement": "Kinase activity", "setting": "EGFR wild-type; Log [HX103 (M)] -9", "value": "85.4 and 76.53 and 77.56"}, {"measurement": "IC50", "setting": "EGFR wild-type; n = 3", "value": 0.004, "unit": "µM"}]}
